Among the data in US10577365B2, “Derivatives of quinoline as inhibitors of DYRK1A and/or DYRK1B kinases” (Felicitex Therapeutics, Inc., priority 2016, dated 2020) are IC50 values, retold here.

Structures can show the parent of a compound that is named as a salt. Where two headings read alike, the source gives them in different places. Where only a bound is given, the exact number is not on record here.

Test [1] addresses T1, DYRK1B (Homo sapiens, UniProt Q9Y463).
T1 construct: purchased Carna Bioscence (Carna Biosciences) 04-131
In words: DYRK1B in vitro kinase assay (ADP-Glo). It is filed as biochemical. Here is the method:
The compounds of the present invention were tested for their inhibitory activity against DYRK1A and DYRK1B kinases once or several times. When tested more than once, the data are reported herein as average value, wherein the average value, also referred to as the mean value, represents the sum of obtained values divided by the number of times tested. DYRK-inhibitory activity of the compounds of the present invention was tested using the ADP-Glo™ assay as described in the following paragraphs. The procedure for determining the IC50 values with the ADP-Glo™ assay in in vitro kinase assays consists of two parts: […] Kinase reaction performed under optimized conditions; 2. Detection of ADP as a product of the reaction using ADP-Glo™ system (Promega). The tested compounds indicated in Table 5 below were dissolved in DMSO, then transferred to the V-bottom PP plate to perform nine serial dilutions (in order to obtain dose-response curves) in 25% DMSO, as indicated in Table 5 below. The optimized conditions for performing DYRK1B in vitro kinase assay were as follows: [table] For compound testing, the following protocol was used: two mixes were prepared on ice, Mix 1 containing substrate, ATP and reaction buffer and Mix 2 containing reaction buffer and the kinase. 15 μL per well of Mix 1 was transferred to wells of a 96-well plate. […] Total reaction volume was 30 μL per well. The experiment was performed in duplicate for each data point being examined. Dose response curve for the positive control was carried out on each assay plate by adding the reference inhibitory compound staurosporine. For each test, three controls were also included: (i) 30 μL of the reaction mixture containing: reaction buffer, ATP, kinase, DMSO without substrate (quasi-positive control); (ii) 30 μL of the reaction mixture containing reaction buffer, substrate, ATP, DMSO without kinase (background control); (iii) 30 μL of the reaction mixture containing reaction buffer, substrate, kinase, ATP, DMSO (vehicle control). Final concentration of DMSO in the reaction was 2%. To detect the ADP amount produced during the kinase reaction, the commercially available kit ADP-Glo™ Kinase Assay (Promega, cat. No # V9103) was used. The protocol used for the detection was based on the Technical Bulletin of the ADP-Glo™ Kinase Assay (Promega) and was adapted to 96-well plate containing 30 μL reaction mixture as explained below. 30 μL of ADP-Glo™ Reagent was added to each well of a 96 well plate containing 30 μL of reaction mixture to terminate the kinase reaction and deplete the remaining ATP. The plate was incubated for 60 minutes on a shaker at rt. 60 μL of Kinase Detection Solution was then added to each well of 96-well plate containing 60 μL of the solution to convert ADP to ATP and to allow the newly synthesized ATP to be measured using a luciferase/luciferin reaction (ratio of kinase reaction volume to ADP Glo™ Reagent volume to Kinase Detection Solution volume was maintained at 1:1:2). The plate was incubated for 40 minutes on a shaker at rt, protected from light. Luminescence was measured in the plate reader, wherein the luminescent signal is proportional to the ADP concentration produced and thus correlates with kinase activity. After data normalization to controls (complete reaction mix and no-substrate control) and transforming X values (test compound concentrations) using: X=log(X), IC50 values were determined, using the GraphPad Prism 6.0 [log(agonist) vs. normalized response—Variable slope].

The target of test [2] is T2, DYRK1A (Homo sapiens, UniProt Q13627).
T2 construct: purchased Carna Bioscence (Carna Biosciences) 04-130
In words: DYRK1A in vitro kinase assay (ADP-Glo). The test is classed as biochemical. The note with it: ATP 70 μM (Km), substrate 3 μM, enzyme 2 nM or 0.7 nM, 30 min, rt. On the procedure: The compounds of the present invention were tested for their inhibitory activity against DYRK1A and DYRK1B kinases once or several times. When tested more than once, the data are reported herein as average value, wherein the average value, also referred to as the mean value, represents the sum of obtained values divided by the number of times tested.
DYRK-inhibitory activity of the compounds of the present invention was tested using the ADP-Glo™ assay as described in the following paragraphs. The procedure for determining the IC50 values with the ADP-Glo™ assay in in vitro kinase assays consists of two parts:
1. Kinase reaction performed under optimized conditions;
2. Detection of ADP as a product of the reaction using ADP-Glo™ system (Promega).
The tested compounds indicated in Table 5 below were dissolved in DMSO, then transferred to the V-bottom PP plate to perform nine serial dilutions (in order to obtain dose-response curves) in 25% DMSO, as indicated in Table 5 below.
The optimized conditions for performing DYRK1A in vitro kinase assay were as follows:
For compound testing, the following protocol was used: two mixes were prepared on ice, Mix 1 containing substrate, ATP and reaction buffer and Mix 2 containing reaction buffer and the kinase. 15 μL per well of Mix 1 was transferred to wells of a 96-well plate. Next, 2.5 μL of the pre-diluted compound to be tested was added to Mix 1, followed by the addition of 12.5 μL of Mix 2. Total reaction volume was 30 μL per well. The experiment was performed in duplicate for each data point being examined. Dose response curve for the positive control was carried out on each assay plate by adding the reference inhibitory compound staurosporine. For each test, three controls were also included: (i) 30 μL of the reaction mixture containing: reaction buffer, ATP, kinase, DMSO without substrate (quasi-positive control); (ii) 30 μL of the reaction mixture containing reaction buffer, substrate, ATP, DMSO without kinase (background control); (iii) 30 μL of the reaction mixture containing reaction buffer, substrate, kinase, ATP, DMSO (vehicle control). Final concentration of DMSO in the reaction was 2%. To detect the ADP amount produced during the kinase reaction, the commercially available kit ADP-Glo™ Kinase Assay (Promega, cat. No # V9103) was used. The protocol used for the detection was based on the Technical Bulletin of the ADP-Glo™ Kinase Assay (Promega) and was adapted to 96-well plate containing 30 μL reaction mixture as explained below.
30 μL of ADP-Glo™ Reagent was added to each well of a 96 well plate containing 30 μL of reaction mixture to terminate the kinase reaction and deplete the remaining ATP. The plate was incubated for 60 minutes on a shaker at rt. 60 μL of Kinase Detection Solution was then added to each well of 96-well plate containing 60 μL of the solution to convert ADP to ATP and to allow the newly synthesized ATP to be measured using a luciferase/luciferin reaction (ratio of kinase reaction volume to ADP Glo™ Reagent volume to Kinase Detection Solution volume was maintained at 1:1:2). The plate was incubated for 40 minutes on a shaker at rt, protected from light. Luminescence was measured in the plate reader, wherein the luminescent signal is proportional to the ADP concentration produced and thus correlates with kinase activity.
After data normalization to controls (complete reaction mix and no-substrate control) and transforming X values (test compound concentrations) using: X=log(X), IC50 values were determined, using the GraphPad Prism 6.0 [log(agonist) vs. normalized response—Variable slope].

The mark [3] stands for this setting: ADP-Glo assay, ATP 15 μM (Km), substrate 7 μM, enzyme 1 nM or 0.3 nM, 1 h, rt, read-out: DYRK1B IC50.

T1 sequence (Q9Y463 whole entry): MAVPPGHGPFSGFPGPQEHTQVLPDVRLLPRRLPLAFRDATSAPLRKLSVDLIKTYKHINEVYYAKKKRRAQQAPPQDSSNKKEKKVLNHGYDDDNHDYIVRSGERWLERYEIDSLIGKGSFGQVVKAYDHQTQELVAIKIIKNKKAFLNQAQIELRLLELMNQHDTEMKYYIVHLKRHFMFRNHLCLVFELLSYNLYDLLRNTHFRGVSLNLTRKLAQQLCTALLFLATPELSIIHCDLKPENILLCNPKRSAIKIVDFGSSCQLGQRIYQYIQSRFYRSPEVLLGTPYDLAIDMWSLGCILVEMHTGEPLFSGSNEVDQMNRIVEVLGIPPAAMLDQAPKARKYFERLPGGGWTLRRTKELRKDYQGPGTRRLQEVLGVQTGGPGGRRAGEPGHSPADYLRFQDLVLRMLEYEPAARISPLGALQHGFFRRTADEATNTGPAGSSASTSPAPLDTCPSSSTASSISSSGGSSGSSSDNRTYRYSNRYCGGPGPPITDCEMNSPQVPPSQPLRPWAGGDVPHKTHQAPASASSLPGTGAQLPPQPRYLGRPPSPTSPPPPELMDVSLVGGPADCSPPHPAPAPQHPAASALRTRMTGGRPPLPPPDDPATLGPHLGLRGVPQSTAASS

As to `Cc1cc(-c2c[nH]c3ncccc23)cc2c(-c3cccnc3)ccnc12` [Example 18, 8-Methyl-4-(pyridin-3-yl)-6-{1H-pyrrolo[2,3-b]pyridin-3-yl}quinoline], in test [1] (setting [3]), the IC50 lay within 0.01 to 0.1 µM.
On to `CC(=O)Nc1cnc2[nH]cc(-c3cc(F)c4nccc(-c5cccnc5)c4c3)c2c1` [Example 46, N-{3-[8-Fluoro-4-(pyridin-3-yl)quinolin-6-yl]-1H-pyrrolo[2,3-b]pyridin-5-yl}acetamide], for which the IC50 in test [2] and in test [1] (setting [3]) was below 0.01 µM throughout.
With `N[C@@H]1CCCN(c2ccnc3c(F)cc(-c4c[nH]c5ncc(C(=O)NCc6cncnc6)cc45)cc23)C1` [Example 49, 3-{4-[(3R)-3-Aminopiperidin-1-yl]-8-fluoroquinolin-6-yl}-N-(pyrimidin-5-ylmethyl)-1H-pyrrolo[2,3-b]pyridine-5-carboxamide hydrochloride], the IC50 in test [2] and in test [1] (setting [3]) was below 0.01 µM each time.
With `C=CCN(C)C(=O)c1cnc2[nH]cc(-c3cc(F)c4nccc(-c5cccnc5)c4c3)c2c1` [Example 38, 3-[8-Fluoro-4-(pyridin-3-yl)quinolin-6-yl]-N-methyl-N-(prop-2-en-1-yl)-1H-pyrrolo[2,3-b]pyridine-5-carboxamide], the IC50 in test [2] is 0.01 to 0.1 µM; in test [1] (setting [3]), below 0.01 µM.
Compound `N[C@H]1CC[C@H](Nc2ccnc3ccc(-c4c[nH]c5ncccc45)cc23)CC1` [Example 4, trans-1-N-(6-{1H-Pyrrolo[2,3-b]pyridin-3-yl}quinolin-4-yl)cyclohexane-1,4-diamine] displayed an IC50 in test [2] above 0.1 µM.
As to `Fc1cc(-c2c[nH]c3ncc(CNCc4ccccc4)cc23)cc2c(-c3cccnc3)ccnc12` [Example 50, Benzyl({3-[8-fluoro-4-(pyridin-3-yl)quinolin-6-yl]-1H-pyrrolo[2,3-b]pyridin-5-yl}methyl)amine], the IC50 in test [2] and in test [1] (setting [3]) was below 0.01 µM throughout.
`FC(F)(F)Oc1cc(-c2c[nH]c3ncccc23)cc2cccnc12` [Example 14, 6-{1H-Pyrrolo[2,3-b]pyridin-3-yl}-8-(trifluoromethoxy)quinoline]: the values for the IC50 in test [2] and in test [1] (setting [3]) were above 0.1 µM and 0.01 to 0.1 µM, respectively.
With `N[C@@H]1CCCN(c2ccnc3c(F)cc(-c4c[nH]c5ncc(CNCc6ccccc6)cc45)cc23)C1` [Example 51, (3R)-1-(6-{5-[(Benzylamino)methyl]-1H-pyrrolo[2,3-b]pyridin-3-yl}-8-fluoroquinolin-4-yl)piperidin-3-amine], the IC50 in test [2] and in test [1] (setting [3]) was below 0.01 µM throughout.
In the case of `CNC(=O)c1cnc2[nH]cc(-c3ccc4ncc([N+](=O)[O-])c(N5CCC[C@H](N)C5)c4c3)c2c1` [Example 53, 3-{4-[(3S)-3-Aminopiperidin-1-yl]-3-nitroquinolin-6-yl}-N-methyl-1H-pyrrolo[2,3-b]pyridine-5-carboxamide hydrochloride], the IC50 was 0.01 to 0.1 µM in test [2] and below 0.01 µM in test [1] (setting [3]).
For `Cc1cc(-c2c[nH]c3ncccc23)cc2c(-c3ccccc3)ccnc12` [Example 17, 8-Methyl-4-phenyl-6-{1H-pyrrolo[2,3-b]pyridin-3-yl}quinoline] the same measures were above 0.1 µM and above 0.1 µM.
On to `CNC(=O)c1cnc2[nH]cc(-c3ccc4ncc(NCc5cccc(Cl)c5)c(N5CCOCC5)c4c3)c2c1` [Example 56, 3-(3-{[(3-Chlorophenyl)methyl]amino}-4-(morpholin-4-yl)quinolin-6-yl)-N-methyl-1H-pyrrolo[2,3-b]pyridine-5-carboxamide], for which the IC50 in test [2] was 0.01 to 0.1 µM; in test [1] (setting [3]) it was below 0.01 µM.
Regarding `Clc1ccnc2ccc(-c3c[nH]c4ncccc34)cc12` [Example 1, 4-Chloro-6-{1H-pyrrolo[2,3-b]pyridin-3-yl}quinoline], the IC50 in test [2] was in the range of 0.01 to 0.1 µM.
Take `COc1cc(-c2c[nH]c3ncccc23)cc2cccnc12` [Example 15, 8-Methoxy-6-{1H-pyrrolo[2,3-b]pyridin-3-yl}quinoline]: the IC50 in test [1] (setting [3]) was 0.01 to 0.1 µM.
Consider `CNC(=O)c1cnc2[nH]cc(-c3cc(OC)c4ncccc4c3)c2c1` [Example 29, 3-(8-Methoxyquinolin-6-yl)-N-methyl-1H-pyrrolo[2,3-b]pyridine-5-carboxamide], for which, in test [1] (setting [3]), the concentration for half-maximal inhibition (IC50) fell in the range of 0.01 to 0.1 µM.
Still for that read-out and setting: the value for `CNC(=O)c1cnc2[nH]cc(-c3cc(C)c4nccc(-c5cccnc5)c4c3)c2c1` [Example 42, N-Methyl-3-[8-methyl-4-(pyridin-3-yl)quinolin-6-yl]-1H-pyrrolo[2,3-b]pyridine-5-carboxamide] was 0.01 to 0.1 µM.
For `N[C@H]1CCN(c2ccnc3ccc(-c4c[nH]c5ncccc45)cc23)C1` [Example 5, (3S)-1-(6-{1H-Pyrrolo[2,3-b]pyridin-3-yl}quinolin-4-yl)pyrrolidin-3-amine], the IC50 in test [2] is below 0.01 µM.
For `CN1CCC(Nc2c(C#N)cnc3ccc(-c4c[nH]c5ncccc45)cc23)CC1` [Example 64, 4-[(1-Methylpiperidin-4-yl)amino]-6-{1H-pyrrolo[2,3-b]pyridin-3-yl}quinoline-3-carbonitrile], the IC50 in test [1] (setting [3]) was 0.01 to 0.1 µM.
Same read-out and setting: the value for `CN1CCC(Nc2ccnc3ccc(-c4c[nH]c5ncccc45)cc23)CC1` [Example 10, N-(1-Methylpiperidin-4-yl)-6-{1H-pyrrolo[2,3-b]pyridin-3-yl}quinolin-4-amine] was 0.01 to 0.1 µM.
In test [1], `Cc1cc(-c2c[nH]c3ncccc23)cc2cccnc12` [Example 12, 8-Methyl-6-{1H-pyrrolo[2,3-b]pyridin-3-yl}quinoline hydrochloride] displayed an IC50 of 0.01 to 0.1 µM.
